Measurements taken from patent US10301259B2, “Beta-cryptoxanthin from plant source and a process for its preparation” (OMNIACTIVE HEALTH TECHNOLOGIES LIMITED, priority 2013, dated 2019).

Assays:
OVX rat model = assay: Anti-resorptive / anti-osteoporotic activity in OVX rat model (overall conclusions); format: in vivo, Wistar rats
[1] = under similar conditions; Burri et al. (2011); cited from earlier work

For `CC1=C(/C=C/C(C)=C/C=C/C(C)=C/C=C/C=C(C)/C=C/C=C(C)/C=C/C2=C(C)CC(O)CC2(C)C)C(C)(C)CCC1` (stereo not drawn) [beta-cryptoxanthin, beta,beta-caroten-3-ol], the Anti-osteoporotic activity (OVX rat model) is given as “significant anti-osteoporotic activity” and the “Bioavailability relative to beta-carotene” value [1] is given as ~7 fold.
